{
  "source": "patent US7745465B2",
  "about": "“Method of enhancing cellular production of molecular chaperone, hydroxylamine derivatives useful for enhancing the chaperone production and the preparation thereof” (CytRx Corporation, priority 1995, dated 2010)",
  "tested_on": "Hsp90",
  "experiment": "Western blot of hsp90 in heat shocked H9c2 cells",
  "type": "cell-based, rat",
  "protocol": "Experiments set forth in this section were conducted to determine whether N-[2-hydroxy-3-(1-piperidinyl)propoxy]-3-pyridinecarboximidoyl chloride maleate acts to increase the expression of molecular chaperon by a cell. The accumulation of different heat shock proteins subsequent to a period of exposure to heat shock alone, and to heat shock in combination with N-[2-hydroxy-3-(1-piperidinyl)propoxy]-3-pyridinecarboximidoyl chloride maleate administration, was examined by adding 10^−5 M of N-[2-hydroxy-3-(1-piperidinyl)propoxy]-3-pyridinecarboximidoyl chloride maleate before, during, or immediately after hyperthermic treatment of heart myogenic cells (H9c2 cells).\nThe embryonic rat heart-derived cell line H9c2 was obtained from European Collection of Animal cell Cultures (ECACC) (88092904). The cells were maintained at 37° C. in Dulbecco's modified Eagle's medium (DMEM) supplemented with 10% fetal calf serum (GIBCO) in JOUAN C02 thermostat (5% CO2).\nHeat shock was performed at 43° C. in CO2 thermostat for the given time intervals (20, 40, 60, 90 and 120 min.). Cells were then taken back to 37° C. for 6 hours and proteins were extracted for SDS-PAGE. […]\nProtein concentration was determined from 5:1 samples by the Bradford assay (M. M. Braford, Anal. Biochem., 72: 248-254 (1976)) in three parallel. […]",
  "data": [
    {"smiles": "O=C(O)/C=C\\C(=O)O.OC(CON=C(Cl)c1cccnc1)CN1CCCCC1", "note": "(centres unmarked) [N-[2-hydroxy-3-(1-piperidinyl)-propoxy]3-pyridinecarboximidoyl chloride maleate]", "values": [
      {"measurement": "level of Hsp90 increased", "setting": "added before the heat stress, 20 min. heat treatment", "value": "about fivefold"},
      {"measurement": "effect on HSP90 level", "setting": "added following 43° C. 60 min. treatment", "value": "as effective (if not more) as if added before high temperature stress"}
    ]}
  ]
}
